Where “and” joins values, the source holds several entries; their conditions need not be identical. Equal values may be shown once.
System: MDA-MB-231 multicell spheroids, viability (%T/C)
Test: Anticancer human tumor MDA-MB-231 cell line growth inhibition [IpAb];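 note: viability read after seven days of drug exposure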;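 for viability, T/C: 100% = DMSO vehicle control viability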
Settings: for viability, T/C: stronger effect = lower value
Procedure, shortened: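 Multi-cell spheroids of 60% tumour cells, 25% HUVEC and 15% MSC in ultra-low-attachment U-bottom wells, treated with agents combined with ipatasertib or abemaciclib. Half-log ranges top out near clinical Cmax, or 10 microM when Cmax is unknown.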

[1] = curve of first compound, second compound 0.1 µM
[2] = curve of first compound, second compound 0.316 µM
[3] = curve of first compound, second compound 1 µM
[4] = curve of first compound, second compound 3.16 µM
[5] = curve of first compound, second compound 10 µM

Cn1cnc2c(F)c(Nc3ccc(Br)cc3Cl)c(C(=O)NOCCO)cc21 + CC(C)NCC(C(=O)N1CCN(c2ncnc3c2C(C)CC3O)CC1)c1ccc(Cl)cc1
IC50 [1]: < 9.49 nM
IC50 [2]: < 9.49 nM
IC50 [3]: < 9.49 nM
IC50 [4]: < 9.49 nM
IC50 [5]: < 9.49 nM
viability, T/C (second compound 0.1 µM, first compound 0.00949 µM): 43.2%
viability, T/C (second compound 0.1 µM, first compound 0.03 µM): 36.2%
viability, T/C (second compound 0.1 µM, first compound 0.0949 µM): 34.3%
viability, T/C (second compound 0.1 µM, first compound 0.3 µM): 27.8%
viability, T/C (second compound 0.1 µM, first compound 0.949 µM): 23.4%
viability, T/C (second compound 0.1 µM, first compound 3 µM): 13%
viability, T/C (second compound 0.316 µM, first compound 0.00949 µM): 38%
viability, T/C (second compound 0.316 µM, first compound 0.03 µM): 31.8%
viability, T/C (second compound 0.316 µM, first compound 0.0949 µM): 29.5%
viability, T/C (second compound 0.316 µM, first compound 0.3 µM): 24.1%
viability, T/C (second compound 0.316 µM, first compound 0.949 µM): 20.4%
viability, T/C (second compound 0.316 µM, first compound 3 µM): 11.6%
viability, T/C (second compound 1 µM, first compound 0.00949 µM): 31.2%
viability, T/C (second compound 1 µM, first compound 0.03 µM): 28.2%
viability, T/C (second compound 1 µM, first compound 0.0949 µM): 24.8%
viability, T/C (second compound 1 µM, first compound 0.3 µM): 23%
viability, T/C (second compound 1 µM, first compound 0.949 µM): 17.5%
viability, T/C (second compound 1 µM, first compound 3 µM): 10.5%
viability, T/C (second compound 3.16 µM, first compound 0.00949 µM): 25%
viability, T/C (second compound 3.16 µM, first compound 0.03 µM): 22.6%
viability, T/C (second compound 3.16 µM, first compound 0.0949 µM): 20.6%
viability, T/C (second compound 3.16 µM, first compound 0.3 µM): 18.4%
viability, T/C (second compound 3.16 µM, first compound 0.949 µM): 14.5%
viability, T/C (second compound 3.16 µM, first compound 3 µM): 7.58%
viability, T/C (second compound 10 µM, first compound 0.00949 µM): 18.9%
viability, T/C (second compound 10 µM, first compound 0.03 µM): 16.9%
viability, T/C (second compound 10 µM, first compound 0.0949 µM): 13.8%
viability, T/C (second compound 10 µM, first compound 0.3 µM): 13.1%
viability, T/C (second compound 10 µM, first compound 0.949 µM): 8.94%
viability, T/C (second compound 10 µM, first compound 3 µM): 4.82%

Cc1nc(NC(=O)N2CCCC2C(N)=O)sc1-c1ccnc(C(C)(C)C(F)(F)F)c1 (configuration not stated) + CC(C)NCC(C(=O)N1CCN(c2ncnc3c2C(C)CC3O)CC1)c1ccc(Cl)cc1
IC50 [1]: > 10000 nM
IC50 [2]: > 10000 nM
IC50 [3]: > 10000 nM
IC50 [4]: < 31.6 nM
IC50 [5]: < 31.6 nM
viability, T/C (second compound 0.1 µM, first compound 0.0316 µM): 84.1%
viability, T/C (second compound 0.1 µM, first compound 0.1 µM): 71.3%
viability, T/C (second compound 0.1 µM, first compound 0.316 µM): 64.7%
viability, T/C (second compound 0.1 µM, first compound 1 µM): 71.8%
viability, T/C (second compound 0.1 µM, first compound 3.16 µM): 71.4%
viability, T/C (second compound 0.1 µM, first compound 10 µM): 62.5%
viability, T/C (second compound 0.316 µM, first compound 0.0316 µM): 74.8%
viability, T/C (second compound 0.316 µM, first compound 0.1 µM): 63.7%
viability, T/C (second compound 0.316 µM, first compound 0.316 µM): 58.3%
viability, T/C (second compound 0.316 µM, first compound 1 µM): 59.9%
viability, T/C (second compound 0.316 µM, first compound 3.16 µM): 64.8%
viability, T/C (second compound 0.316 µM, first compound 10 µM): 60.8%
viability, T/C (second compound 1 µM, first compound 0.0316 µM): 63.1%
viability, T/C (second compound 1 µM, first compound 0.1 µM): 58.7%
viability, T/C (second compound 1 µM, first compound 0.316 µM): 55.3%
viability, T/C (second compound 1 µM, first compound 1 µM): 55.3%
viability, T/C (second compound 1 µM, first compound 3.16 µM): 58%
viability, T/C (second compound 1 µM, first compound 10 µM): 55.8%
viability, T/C (second compound 3.16 µM, first compound 0.0316 µM): 50.7%
viability, T/C (second compound 3.16 µM, first compound 0.1 µM): 45.8%
viability, T/C (second compound 3.16 µM, first compound 0.316 µM): 41.4%
viability, T/C (second compound 3.16 µM, first compound 1 µM): 46%
viability, T/C (second compound 3.16 µM, first compound 3.16 µM): 46.1%
viability, T/C (second compound 3.16 µM, first compound 10 µM): 42.6%
viability, T/C (second compound 10 µM, first compound 0.0316 µM): 35.2%
viability, T/C (second compound 10 µM, first compound 0.1 µM): 33.1%
viability, T/C (second compound 10 µM, first compound 0.316 µM): 31.6%
viability, T/C (second compound 10 µM, first compound 1 µM): 33.1%
viability, T/C (second compound 10 µM, first compound 3.16 µM): 37.8%
viability, T/C (second compound 10 µM, first compound 10 µM): 32.8%

Cn1nccc1Nc1nccc(-c2ccn(C(CO)c3ccc(Cl)c(F)c3)c(=O)c2)n1 (configuration not stated)
viability, T/C (compound 0.0316 µM): 71% and 65.7%
viability, T/C (compound 0.1 µM): 59% and 53.1%
viability, T/C (compound 0.316 µM): 49.6% and 47.1%
viability, T/C (compound 1 µM): 48% and 38%
viability, T/C (compound 3.16 µM): 30.3% and 33.5%
viability, T/C (compound 10 µM): 23.5% and 21.3%
IC50 (curve of compound): 406 nM and 209 nM

— PubChem BioAssay AID2060328 (Molecular Pharmacology Branch, DTP, NCI, 2025)
